Measured values taken from patent publication US5783703A, “Sulfur-containing compounds method for their use and prodction” (Lederle (Japan), Ltd., priority 1993, dated 1998).
In brackets after ≈: the same amount, converted by molar mass.

Key:
B. subtilis ATCC 6633 = experiment: Antibacterial test, agar plate dilution method (MIC), standard strains; format: cell-based; conditions: Bacillus subtilis, ATCC6633, MH agar, 37° C., 18 hours
Procedure: (§1) The antibacterial activities were tested by an agar plate dilution method in accordance with the standard method of The Japanese Chemotherapy Society [Chemotherapy, Vol. 29, 76-79 (1981)].
(§2) A Mueller-Hinton (MH) agar liquid medium of a test microorganism was cultured overnight at 37° C. and the resultant culture medium was diluted with a buffered saline gelatin (BSG) solution to contain approximately 10^6 cells of the test microorganisms per milliliter, and then the diluted solution was inoculated with a microplanter at the rate of approximately 5 microliters on a MH agar medium containing a test compound. This medium was then incubated at 37° C. for 18 hours. The minimum inhibitory concentration (MIC) is determined as a minimum concentration in which no test microorganism could grow. It is noted here that the test organisms used were all standard strains.

E. aerogenes ATCC 13048 = experiment: as above; format: cell-based; conditions: Klebsiella aerogenes, ATCC13048, MH agar, 37° C., 18 hours
Procedure: as §1, §2

E. cloacae 963 = experiment: as above; format: cell-based; conditions: Enterobacter cloacae, MH agar, 37° C., 18 hours
Procedure: as §1, §2

E. coli K-12 C600 = experiment: as above; format: cell-based; conditions: Escherichia coli, K12C600, MH agar, 37° C., 18 hours
Procedure: as §1, §2

E. coli NIHJ JC-2 = experiment: as above; format: cell-based; conditions: Escherichia coli, NIHJJC2, MH agar, 37° C., 18 hours
Procedure: as §1, §2

K. pneumoniae PCI-602 = experiment: as above; format: cell-based; conditions: Klebsiella pneumoniae, PCI602, MH agar, 37° C., 18 hours
Procedure: as §1, §2

M. luteus ATCC 9341 = experiment: as above; format: cell-based; conditions: Micrococcus luteus, ATCC9341, MH agar, 37° C., 18 hours
Procedure: as §1, §2

M. morganii IFO 3848 = experiment: as above; format: cell-based; conditions: Morganella morganii, IFO3848, MH agar, 37° C., 18 hours
Procedure: as §1, §2

P. mirabilis IFO 3849 = experiment: as above; format: cell-based; conditions: Proteus mirabilis, IFO3849, MH agar, 37° C., 18 hours
Procedure: as §1, §2

P. rettgeri IFO 3850 = experiment: as above; format: cell-based; conditions: Providencia rettgeri, IFO3850, MH agar, 37° C., 18 hours
Procedure: as §1, §2

P. vulgaris HX-19 = experiment: as above; format: cell-based; conditions: Proteus vulgaris, HX19, MH agar, 37° C., 18 hours
Procedure: as §1, §2

P. vulgaris OX-19 = experiment: as above; format: cell-based; conditions: Proteus vulgaris, OX19, MH agar, 37° C., 18 hours
Procedure: as §1, §2

S. aureus FDA209P JC-1 = experiment: as above; format: cell-based; conditions: Staphylococcus aureus, MH agar, 37° C., 18 hours
Procedure: as §1, §2

S. aureus MS353 = experiment: as above; format: cell-based; conditions: Staphylococcus aureus, MH agar, 37° C., 18 hours
Procedure: as §1, §2

S. aureus Terajima = experiment: as above; format: cell-based; conditions: Staphylococcus aureus, MH agar, 37° C., 18 hours
Procedure: as §1, §2

S. enteritidis G14 = experiment: as above; format: cell-based; conditions: Salmonella enterica, MH agar, 37° C., 18 hours
Procedure: as §1, §2

S. marcescens IAM 1184 = experiment: as above; format: cell-based; conditions: Serratia marcescens, IAM1184, MH agar, 37° C., 18 hours
Procedure: as §1, §2

S. paratyphi 1015 = experiment: as above; format: cell-based; conditions: Salmonella enterica, 18 h
Procedure: as §1, §2

S. pyogenes Cook = experiment: as above; format: cell-based; conditions: Streptococcus pyogenes, MH agar, 37° C., 18 hours
Procedure: as §1, §2

S. schottmuelleri 8006 = experiment: as above; format: cell-based; conditions: MH agar, 37° C., 18 hours
Procedure: as §1, §2

S. typhi 901 = experiment: as above; format: cell-based; conditions: Salmonella enterica, 18 h
Procedure: as §1, §2

S. typhimurium 11D971 = experiment: as above; format: cell-based; conditions: Salmonella enterica, MH agar, 37° C., 18 hours
Procedure: as §1, §2

E. cloacae = experiment: Antibacterial activities against clinically isolated microorganism; format: cell-based; conditions: Enterobacter cloacae, 14 strains clinically isolated in Japan
Procedure: (§3) The following strains clinically isolated freshly in Japan were used in this test.
(§4) 2. The test was carried out by the agar plate dilution method in accordance with the standard method of The Japanese Chemotherapy Society. The minimum inhibitory concentration (MIC) was determined in substantially the same manner as the test procedures described in Test I.

E. faecalis = experiment: as above; format: cell-based; conditions: Enterococcus faecalis, read-out: MIC50 against clinically isolated microorganism
Procedure: as §3, §4

K. pneumoniae = experiment: as above; format: cell-based; conditions: Klebsiella pneumoniae, 23 strains clinically isolated in Japan
Procedure: as §3, §4

MRSA = experiment: as above; format: cell-based; conditions: Staphylococcus aureus, 28 strains clinically isolated in Japan, read-out: MIC50 against clinically isolated microorganism
Procedure: as §3, §4

S. epidermidis = experiment: as above; format: cell-based; conditions: Staphylococcus epidermidis, 23 strains clinically isolated in Japan
Procedure: as §3, §4

S. marcescens = experiment: as above; format: cell-based; conditions: Serratia marcescens, 27 strains clinically isolated in Japan
Procedure: as §3
S. marcescens 27 strains
as §4

[1] = In situ absorption from rat intestinal loop; format: in vivo, rats of Wistar strain; conditions: rat jejunal loop, 20 mg/kg; plasma; for (32) and (33) shown as Compound (28)
Procedure: 7-week-old male rats of Wistar strain were used after fasting overnight. After anesthetizing the animals with ether, the intestine was exteriorized and an acute loop of 30 cm length was prepared from the upper part of jejunum by ligature of both ends. 0.2% physiological saline solutions of the test compounds were injected at a dose of 20 mg/kg into the loop with a syringe, and the loop was returned. About 0.4 ml blood was taken from the vena jugularis at 10, 30, 60 and 120 minutes after dosing.

[2] = Oral absorption study in mice; format: in vivo, mice of ddY strain; conditions: mouse, 100 mg/kg, plasma, for (32) and (33) shown as Compound (28)
Procedure: 5-week-old male mice of ddY strain were used after fasting overnight. The test compounds in 1% physiological saline solution at a dose of 100 mg/kg were administered orally to a group of 2 mice. Blood was taken from the vena jugularis at 15, 30, 60 and 120 minutes after dosing.

Compound: C[C@@H](O)[C@H]1C(=O)N2C(C(=O)O)=C(SC3CN(C4=NCCS4)C3)[C@H](C)[C@H]12 [Compound (28), (1R,5S,6S)-2-[1-(thiazolin-2-yl)azetidin-3-yl]thio-6-[(R)-1-hydroxyethyl]-1-methyl-carbapen-2-em-3-carboxylic acid]
- MIC (B. subtilis ATCC 6633): 0.025 mg/L (≈ 0.0652 µM)
- MIC (E. aerogenes ATCC 13048): 0.1 mg/L (≈ 0.261 µM)
- MIC (E. cloacae 963): 0.05 mg/L (≈ 0.13 µM)
- MIC (E. coli K-12 C600): 0.1 mg/L (≈ 0.261 µM)
- MIC (E. coli NIHJ JC-2): 0.013 mg/L (≈ 0.0339 µM)
- MIC (K. pneumoniae PCI-602): 0.013 mg/L (≈ 0.0339 µM)
- MIC (M. luteus ATCC 9341): 0.2 mg/L (≈ 0.522 µM)
- MIC (M. morganii IFO 3848): 0.39 mg/L (≈ 1.02 µM)
- MIC (P. mirabilis IFO 3849): 0.39 mg/L (≈ 1.02 µM)
- MIC (P. rettgeri IFO 3850): 0.39 mg/L (≈ 1.02 µM)
- MIC (P. vulgaris HX-19): 0.1 mg/L (≈ 0.261 µM)
- MIC (P. vulgaris OX-19): 0.1 mg/L (≈ 0.261 µM)
- MIC (S. aureus FDA209P JC-1): 0.013 mg/L (≈ 0.0339 µM)
- MIC (S. aureus MS353): ≤ 0.006 mg/L
- MIC (S. aureus Terajima): ≤ 0.006 mg/L
- MIC (S. enteritidis G14): 0.39 mg/L (≈ 1.02 µM)
- MIC (S. marcescens IAM 1184): 0.05 mg/L (≈ 0.13 µM)
- MIC (S. paratyphi 1015): 0.05 mg/L (≈ 0.13 µM)
- MIC (S. pyogenes Cook): ≤ 0.006 mg/L
- MIC (S. schottmuelleri 8006): 0.025 mg/L (≈ 0.0652 µM)
- MIC (S. typhi 901): ≤ 0.006 mg/L
- MIC (S. typhimurium 11D971): 0.025 mg/L (≈ 0.0652 µM)
- MIC50 (E. cloacae): 0.1 mg/L (≈ 0.261 µM)
- MIC50 (E. faecalis): 0.39 mg/L (≈ 1.02 µM)
- MIC50 (K. pneumoniae): 0.025 mg/L (≈ 0.0652 µM)
- MIC50 (MRSA): 0.78 mg/L (≈ 2.03 µM)
- MIC50 (S. epidermidis): 0.39 mg/L (≈ 1.02 µM)
- MIC50 (S. marcescens): 0.2 mg/L (≈ 0.522 µM)
- AUC(0-t) at 2 h [1]: 1 µg·h/mL
- Cmax [1]: 0.8 µg/mL
- AUC(0-t) at 2 h [2]: 5 µg·h/mL
- Cmax [2]: 3.5 µg/mL
